Experimental data taken from PubChem BioAssay (NCI).
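Cells were grown in 96-well plates and exposed to each compound for 48 hours at five concentrations; endpoints were interpolated linearly between bracketing concentrations, or set to the highest concentration if not reached. TGI: total growth inhibition.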

How the values were obtained:
Test in all cases: NCI tumour cell line growth inhibition, 48 h
[1] = test system: BT-549 breast
[2] = test system: DU-145 prostate
[3] = test system: EKVX NSCLC
[4] = test system: HCC-2998 colon
[5] = test system: HCT-116 colon
[6] = test system: HCT-15 colon
[7] = test system: HOP-92 NSCLC
[8] = test system: IGROV1 ovarian
[9] = test system: M14 melanoma
[10] = test system: MOLT-4 leukemia
[11] = test system: NCI-H226 lung
[12] = test system: OVCAR-5 ovarian
[13] = test system: OVCAR-8 ovarian
[14] = test system: SF-268 CNS
[15] = test system: TK-10 renal

CC(C)(C)c1cc(C(=O)/C=C/c2c(Cl)cccc2Cl)cc(C(C)(C)C)c1O
TGI [1]: 61.7 µM
TGI [2]: > 96.2 µM
TGI [3]: 63.3 µM
TGI [4]: 28.1 µM
TGI [5]: 23.2 µM
TGI [6]: 27.9 µM
TGI [7]: > 95.7 µM
TGI [8]: > 100 µM
TGI [9]: 54.7 µM
TGI [10]: > 56.5 µM
TGI [11]: 35.2 µM
TGI [12]: 35 µM
TGI [13]: > 100 µM
TGI [14]: > 58.9 µM
TGI [15]: 41.5 µM

C1=CC2C=CC(C=C1)P2c1ccccc1 (stereo not given)
TGI [1]: > 100 µM
TGI [2]: > 100 µM
TGI [3]: > 100 µM
TGI [4]: > 100 µM
TGI [5]: > 100 µM
TGI [6]: > 100 µM
TGI [7]: > 100 µM
TGI [8]: > 100 µM
TGI [9]: > 100 µM
TGI [10]: > 100 µM
TGI [11]: > 100 µM
TGI [12]: > 100 µM
TGI [13]: > 100 µM
TGI [14]: > 100 µM
TGI [15]: > 100 µM

CS(=O)(=O)OCCCCOS(=O)(=O)CF
TGI [1]: > 100 µM
TGI [2]: > 100 µM
TGI [3]: > 100 µM
TGI [4]: > 100 µM
TGI [5]: > 100 µM
TGI [6]: > 100 µM
TGI [7]: > 92.4 µM
TGI [8]: > 100 µM
TGI [9]: > 100 µM
TGI [10]: > 100 µM
TGI [11]: > 100 µM
TGI [12]: > 100 µM
TGI [13]: > 100 µM
TGI [14]: > 100 µM
TGI [15]: > 100 µM

COC(=O)NC(Nc1ccccn1)(C(F)(F)F)C(F)(F)F
TGI [1]: > 100 µM
TGI [2]: > 100 µM
TGI [3]: > 100 µM
TGI [4]: > 100 µM
TGI [5]: > 100 µM
TGI [6]: > 100 µM
TGI [7]: > 100 µM
TGI [8]: > 100 µM
TGI [9]: > 100 µM
TGI [10]: > 100 µM
TGI [11]: > 100 µM
TGI [12]: > 100 µM
TGI [13]: > 100 µM
TGI [14]: > 100 µM
TGI [15]: > 100 µM

C=Cc1nc2c(Cl)ncnc2n1Cc1ccccc1
TGI [1]: 10.9 µM
TGI [2]: 7.2 µM
TGI [3]: 10.3 µM
TGI [4]: 6.76 µM
TGI [5]: 4.72 µM
TGI [6]: 8.05 µM
TGI [7]: 4.66 µM
TGI [8]: 10.9 µM
TGI [9]: 15.7 µM
TGI [10]: > 28.4 µM
TGI [11]: 17 µM
TGI [12]: 30.5 µM
TGI [13]: 12 µM
TGI [14]: 22.9 µM
TGI [15]: 7.72 µM
